Data taken from ChEMBL document CHEMBL5046315, “CRCM5484: A BET-BDII Selective Compound with Differential Anti-leukemic Drug Modulation” (J Med Chem, 2022).
Calls of active or inactive are those of the source. The calls are words filed in the database; no cut-off is given here.

Columns and labels:
[1] = molecular target: Bromodomain-containing protein 3 (Homo sapiens, UniProt Q15059); experiment: Inhibition of BRD3-BD2 (unknown origin) incubated for 6 hrs by HTRF method
[2] = molecular target: T1, E3 ubiquitin-protein ligase TRIM33 (Homo sapiens) (UniProt Q9UPN9); experiment: Binding affinity to partial length human TRIM33 (D882 to A1087 residues) expressed in bacterial system at 1 uM by BROMOscan method relative to control
T1 sequence (whole entry): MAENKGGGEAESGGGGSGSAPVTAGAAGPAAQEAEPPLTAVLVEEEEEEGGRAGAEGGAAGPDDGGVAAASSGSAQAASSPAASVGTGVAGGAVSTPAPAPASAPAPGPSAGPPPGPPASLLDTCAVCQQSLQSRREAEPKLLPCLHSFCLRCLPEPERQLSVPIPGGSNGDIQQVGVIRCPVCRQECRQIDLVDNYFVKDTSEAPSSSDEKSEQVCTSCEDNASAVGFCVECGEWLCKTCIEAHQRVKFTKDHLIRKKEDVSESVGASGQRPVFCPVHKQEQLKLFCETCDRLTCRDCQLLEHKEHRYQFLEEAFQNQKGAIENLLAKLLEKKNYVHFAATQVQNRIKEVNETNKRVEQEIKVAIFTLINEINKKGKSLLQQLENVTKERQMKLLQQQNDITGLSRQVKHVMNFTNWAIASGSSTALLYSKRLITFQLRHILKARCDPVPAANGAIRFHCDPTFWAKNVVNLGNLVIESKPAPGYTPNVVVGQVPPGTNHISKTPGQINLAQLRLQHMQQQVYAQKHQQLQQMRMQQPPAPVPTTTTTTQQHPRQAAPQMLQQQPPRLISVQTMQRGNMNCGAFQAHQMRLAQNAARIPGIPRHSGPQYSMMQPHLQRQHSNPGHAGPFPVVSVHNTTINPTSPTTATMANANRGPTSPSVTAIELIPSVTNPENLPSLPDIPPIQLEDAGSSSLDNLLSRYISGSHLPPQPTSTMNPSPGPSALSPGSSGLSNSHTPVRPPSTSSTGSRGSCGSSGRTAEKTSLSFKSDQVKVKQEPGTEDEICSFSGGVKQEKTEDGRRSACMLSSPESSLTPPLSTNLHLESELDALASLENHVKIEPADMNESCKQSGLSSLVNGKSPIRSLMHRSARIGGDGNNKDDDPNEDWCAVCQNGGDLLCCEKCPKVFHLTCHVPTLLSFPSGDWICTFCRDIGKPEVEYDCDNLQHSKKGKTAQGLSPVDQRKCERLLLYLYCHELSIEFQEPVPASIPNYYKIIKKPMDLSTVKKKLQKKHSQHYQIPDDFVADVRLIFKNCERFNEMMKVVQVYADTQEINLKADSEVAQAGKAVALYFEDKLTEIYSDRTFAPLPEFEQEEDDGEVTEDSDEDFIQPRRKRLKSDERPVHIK

CCRF-CEM [3] = experiment: Cytotoxicity against human CCRF-CEM cells assessed as reduction in cell viability incubated for 72 hrs; type: functional, cell-based
CCRF-CEM [4] = experiment: Potentiation of asparaginase-induced antileukemic activity against human CCRF-CEM cells at 4.3 uM in presence of bone-marrow derived stromal cell-conditioned medium; type: functional, cell-based
CCRF-CEM [5] = experiment: Potentiation of panobinostat-induced antileukemic activity against human CCRF-CEM cells at 4.3 uM in presence of bone-marrow derived stromal cell-conditioned medium; type: functional, cell-based
U-937 [6] = experiment: Potentiation of AG-221-induced antileukemic activity against human U-937 cells at 4.3 uM in presence of bone-marrow derived stromal cell-conditioned medium; type: functional, cell-based
U-937 [7] = experiment: Potentiation of BKM120-induced antileukemic activity against human U-937 cells at 4.3 uM in presence of bone-marrow derived stromal cell-conditioned medium; type: functional, cell-based
U-937 [8] = experiment: Potentiation of clofarabine-induced antileukemic activity against human U-937 cells at 4.3 uM in presence of bone-marrow derived stromal cell-conditioned medium; type: functional, cell-based
MOLM-14 [9] = experiment: Potentiation of etoposide-induced antileukemic activity against human MOLM-14 cells at 4.3 uM in presence of bone-marrow derived stromal cell-conditioned medium; type: functional, cell-based
MOLM-14 [10] = experiment: Potentiation of JQ1-induced antileukemic activity against human MOLM-14 cells at 4.3 uM in presence of bone-marrow derived stromal cell-conditioned medium; type: functional, cell-based
MOLM-14 [11] = experiment: Potentiation of lapatinib-induced antileukemic activity against human MOLM-14 cells at 4.3 uM in presence of bone-marrow derived stromal cell-conditioned medium; type: functional, cell-based
MOLM-14 [12] = experiment: Potentiation of midostaurin-induced antileukemic activity against human MOLM-14 cells at 4.3 uM in presence of bone-marrow derived stromal cell-conditioned medium; type: functional, cell-based
MOLM-14 [13] = experiment: Potentiation of sorafenib-induced antileukemic activity against human MOLM-14 cells at 4.3 uM in presence of bone-marrow derived stromal cell-conditioned medium; type: functional, cell-based
MOLM-14 [14] = experiment: Potentiation of volasertib-induced antileukemic activity against human MOLM-14 cells at 4.3 uM in presence of bone-marrow derived stromal cell-conditioned medium; type: functional, cell-based

Bromodomain-containing protein 3, sequence (Q15059 whole entry, the tested form may be a part): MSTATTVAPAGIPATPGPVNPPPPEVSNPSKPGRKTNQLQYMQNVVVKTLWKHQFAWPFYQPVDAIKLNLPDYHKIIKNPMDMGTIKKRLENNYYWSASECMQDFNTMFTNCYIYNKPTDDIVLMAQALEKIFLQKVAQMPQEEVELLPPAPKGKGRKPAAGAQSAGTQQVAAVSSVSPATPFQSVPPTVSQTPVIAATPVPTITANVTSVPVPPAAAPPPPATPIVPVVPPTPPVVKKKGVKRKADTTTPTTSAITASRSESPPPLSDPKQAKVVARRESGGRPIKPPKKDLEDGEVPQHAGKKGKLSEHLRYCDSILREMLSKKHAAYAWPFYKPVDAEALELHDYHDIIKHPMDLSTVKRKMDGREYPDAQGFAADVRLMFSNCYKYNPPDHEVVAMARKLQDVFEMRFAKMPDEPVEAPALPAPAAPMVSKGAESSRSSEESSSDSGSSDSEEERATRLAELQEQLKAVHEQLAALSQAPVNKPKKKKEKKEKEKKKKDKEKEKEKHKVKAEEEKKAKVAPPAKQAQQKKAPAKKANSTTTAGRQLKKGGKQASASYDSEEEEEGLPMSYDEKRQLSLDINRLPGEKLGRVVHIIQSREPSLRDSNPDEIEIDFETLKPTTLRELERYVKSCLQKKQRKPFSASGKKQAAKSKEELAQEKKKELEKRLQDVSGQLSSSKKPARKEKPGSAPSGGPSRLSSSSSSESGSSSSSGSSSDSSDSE

Question: CC(=O)N1CCc2c(sc3nc(SCC(=O)Nc4cccnc4C)n(Cc4ccco4)c(=O)c23)C1 was tested. Which IC50 [1] did it give?
Answer: The IC50 was 20 nM.

Question: What about the Activity [2] of the same molecule?
Answer: The Activity was 52%.

Question: And the EC50 (CCRF-CEM [3])?
Answer: The EC50 was greater than 5000 nM.

Question: And the Activity (CCRF-CEM [4])?
Answer: The Activity was “inactive”.

Question: And the Activity (CCRF-CEM [5])?
Answer: The Activity was “inactive”.

Question: What about the Activity (U-937 [6]) of the same molecule?
Answer: The Activity was “inactive”.

Question: And the Activity (U-937 [7])?
Answer: Its Activity is “inactive”.

Question: What about the Activity (U-937 [8]) of the same molecule?
Answer: The Activity was “inactive”.

Question: What about the Activity (MOLM-14 [9]) of the same molecule?
Answer: Its Activity is “inactive”.

Question: What about the Activity (MOLM-14 [10]) of the same molecule?
Answer: Its Activity is “inactive”.

Question: What about the Activity (MOLM-14 [11]) of the same molecule?
Answer: The Activity was “inactive”.

Question: What about the Activity (MOLM-14 [12]) of the same molecule?
Answer: Its Activity is “inactive”.

Question: And the Activity (MOLM-14 [13])?
Answer: The Activity was “inactive”.

Question: And the Activity (MOLM-14 [14])?
Answer: Its Activity is “inactive”.
